Experimental data: publication PMC12036814 (Angewandte Chemie (International Ed. in English), 2025)
Entries after “also recorded” stand apart in the source; their conditions may differ.

What was measured:
IDH2 = molecular target: T1, IDH2 (Homo sapiens, UniProt P48735); test: IDH2 in vitro activity assay (NADPH-coupled diaphorase/resazurin); type: biochemical; conditions: known inhibitor control
T1 construct: purchased active motif 31615
T1 sequence (P48735 40-452): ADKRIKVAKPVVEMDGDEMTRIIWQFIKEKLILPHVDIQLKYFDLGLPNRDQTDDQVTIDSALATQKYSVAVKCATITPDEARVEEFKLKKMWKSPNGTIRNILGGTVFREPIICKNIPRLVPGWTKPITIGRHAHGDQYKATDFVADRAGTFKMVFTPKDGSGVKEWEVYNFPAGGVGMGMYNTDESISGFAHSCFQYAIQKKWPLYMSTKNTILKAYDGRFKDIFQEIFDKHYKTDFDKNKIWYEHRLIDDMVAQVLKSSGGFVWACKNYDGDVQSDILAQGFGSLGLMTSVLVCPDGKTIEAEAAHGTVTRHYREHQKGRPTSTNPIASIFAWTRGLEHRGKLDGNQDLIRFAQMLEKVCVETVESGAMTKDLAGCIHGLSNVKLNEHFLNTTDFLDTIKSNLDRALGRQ
Experimental: Recombinant human isocitrate dehydrogenase was purchased from active motif (Carlsbad, USA, Cat#
Activity assays were performed as previously described with minor
modifications.12 Briefly, the catalytic activity of converting is ocitrate to 2-oxogluterate (α-
ketoglutarate) converting the cofactor NADP+ to NADPH was measured by a NADPH-coupled assay.
The NADPH-dependent diaphorase (Sigma-Aldrich, St. Louis, USA, Cat# SLBT8928) converted resazurin
for activity read-out. To IDH2 (2 nM) in assay buffer (150 mM NaCl, 50 mM K2HPO4, 10 mM MnCl2, 10
mercaptoethanol (cend= 2.5 mM) for a total reaction volume of 79 µL per well (black 96-well plate, 4
replicates per condition). Conditions lacking IDH2 were added as control. After addition of 1 µL of
vehicle controls, the mixture was incubated at 25 °C for 1 h in the dark. Subsequently, the reaction was
initiated by addition of 20 µL of substrate mix (0.2 mM isocitrate, 60 µg/mL diaphorase, 200 µM
resazurin in assay buffer). Fluorescence was continuously measured using an Infinite M200 pro (Tecan,
the fluorescence increases were calculated via linear regression using GraphPad Prism (version 9).

NUDT1 = NUDT1 (Homo sapiens, UniProt P36639); test: NUDT1 in vitro activity assay (malachite green); type: biochemical; design: Full length NUDT1 gene synthesis; N-terminal His tag with thrombin site from pET28a(+) (NdeI/XhoI) (N, cleaved yes); made in house; host or cells: E. coli BL21 (DE3); conditions: tested 1-500 µM; highest tested 500 µM
[1] = system: periodontal ligament cell line (PDL‐hTERT); test: Whole proteome analysis and pathway analysis of treated PDL-hTERT cells; type: cell-based, human; design: dose or concentration left out as unconfirmed; conditions: same concentrations ([…] and […] µM), 3 days, compared with Ciprofloxacin
[2] = system: HEK‐293 and PDL‐hTERT cells; test: MTT assay, relative metabolic activity after 3 days; type: cell-based, human; conditions: 3 days of treatment
Experimental: Methods and Experimental Procedures
(Alfa Aesar, Haverhill, USA, Cat# J66943 ) stocks were prepared in sterile -filtered 0.1 N HCl to a
maximum concentration of 50 mM. HCl was used as vehicle control, diluted in culture medium, and
Cell culture experiments were performed in HEK 293, A549 or PDL-hTERT cells1 cultured in DMEM high
glucose medium supplemented with 10% FCS and 2 mM glutamine ( all, Sigma-Aldrich, St. Louis, USA,
Cat# G7513) in 5% CO2 atmosphere at 37 °C in Heracell 150i incubators (Thermo Fisher Scientific,
Waltham, USA). The human periodontal ligament (PDL -hTERT) cell line was provided by Prof. Denitsa
Docheva. During standard cell passaging accutase (Sigma-Aldrich) or 2,5x trypsin/0.5% EDTA in PBS
(Capricorn Scientific, Ebsdorfergrund, Germany) was used for cell detachment. Cell dishes in various
sizes (10 cm, 15 cm) and flasks (T75, T175) were used for cultivation (Sarstedt, Nümbrecht, Germany,
purchased from Thermo Fisher Scientific, Waltham, USA, Cat# 130184, 130188.
HEK or PDL-hTERT cells (1,5 x 10^3 cells/well) were seeded into 96 -well plates and grown for 24 h. […]
removed by suction and the formed formazan crystals dissolved in 200 μL DMSO. The read-out was
performed with an Infinite M200 Pro microplate reader (Tecan, Männedorf, Switzerland) at 570 nm
and background was subtracted at 630 nm. The absorbance values were normalized to DMSO/0.1 N […]

ADAL1 = molecular target: T2, ADAL1 (Homo sapiens, UniProt Q6DHV7); test: ADAL1 in vitro activity assay (N6-methyl-AMP absorbance shift); type: biochemical; conditions: tested up to 500 µM
T2 construct: Full length ADAL1 gene synthesis; made in house; host or cells: E. coli BL21 (DE3)
T2 sequence (Q6DHV7 1-355): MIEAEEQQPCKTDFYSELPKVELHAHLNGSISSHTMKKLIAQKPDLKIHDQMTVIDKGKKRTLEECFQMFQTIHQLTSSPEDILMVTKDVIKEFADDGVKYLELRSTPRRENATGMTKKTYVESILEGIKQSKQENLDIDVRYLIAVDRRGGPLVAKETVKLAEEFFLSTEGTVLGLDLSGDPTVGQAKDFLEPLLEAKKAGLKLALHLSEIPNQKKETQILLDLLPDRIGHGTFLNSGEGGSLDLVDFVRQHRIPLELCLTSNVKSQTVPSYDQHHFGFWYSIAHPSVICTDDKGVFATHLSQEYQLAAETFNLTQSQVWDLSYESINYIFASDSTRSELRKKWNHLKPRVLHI
Experimental: Cytiva, Marlborough, USA, Cat# 6818-1304). Nickel-affinity chromatography purification was
performed with Äkta Pure system (GE Healthcare, Chicago, USA) using an HisTrap HP (5 mL, Cytiva,
Marlborough, USA, Cat# 17-5248) column equilibrated in buffer A. The filtered lysate was applied via
the sample pump and subsequently the column was washed for 15 column volumes (CV) with buffer
A, before gradient elution with buffer B (50 mM Tris pH 8.0, 300 mM NaCl, 5 mM β-mercaptoethanol,
0.1% (v/v) NP40, 10% (v/v) glycerol and 400 mM imidazole) from 0% to 100% buffer B over for 25 CV.
ADAL1 containing fraction s were identified via SDS-PAGE, pooled and dialyzed in buffer 1 (20 mM Tris
pH 8.0, 1 mM DTT, 10% (v/v) glycerol ) in a dialysis membrane ( Carl Roth, Karlsruhe, Germany, Cat#
E659.1) overnight at 4 °C. […]
methyl-AMP (Cayman Chemical, Ann Arbor, USA, Cat# 23382) to […] by ADAL1 was monitored by
the shift of the absorbance maxima of educt ( 265 nm) and product (250 nm). […]
substrate N6-methyl-AMP (1 µL of 20 mM stock in PBS). The absorbance at 270 nm was continuously
measured using a Infinite M200 Pro (Tecan, Männedorf, Switzerland) plate reader. […]
the absorbance readings were calculated via linear regression using GraphPad Prism (version 9). […]
residual activity of compound treated protein was determined in comparison to vehicle -treated […]

Compound | extent of IDH2 (wild-type) inhibition compared with the FQs (IDH2) | NUDT1 in vitro activity, inhibition (NUDT1) | regulation of ETC complex I and IV subunits [1] | approximate apparent IC50 (metabolic activity, MTT) [2] | ADAL1 in vitro activity, effect (ADAL1)
CC(C)(O)CNc1nc(Nc2ccnc(C(F)(F)F)c2)nc(-c2cccc(C(F)(F)F)n2)n1 [Enadisenib, Enasidenib] | similar | – | – | – | –
C[C@H]1COc2c(N3CCN(C)CC3)c(F)cc3c(=O)c(C(=O)O)cn1c23 [Levofloxacin] | – | only at the highest tested concentration (500 µM); also recorded: only significant at the highest concentration tested | also observed using the same concentrations, although to a lesser extent | well above the reported plasma concentrations | no significant effect; also recorded: no inhibitory effect was detected
